Test results published in ChEMBL document CHEMBL3046939, “Design, synthesis, and anti-allergic activities of novel (R)(-)-1-[(4-chlorophenyl)phenyl methyl]piperazine derivatives” (2012).

How the values were obtained:
Assay type in all cases: functional
Cavia porcellus [1] = experiment: Antipruritic activity in Cavia porcellus (guinea pig) histamine phosphate-induced itching model assessed as increase of total amount of histamine phosphate level at 50 mg/kg, administered 1 hr before histamine phosphate challenge with food relative to levocetirizine
Cavia porcellus [2] = experiment: Antipruritic activity in Cavia porcellus (guinea pig) histamine phosphate-induced itching model assessed as increase of total amount of histamine phosphate level at 50 mg/kg, administered 1 hr before histamine phosphate challenge with food relative to control
Cavia porcellus [3] = experiment: Antiasthmatic activity in Cavia porcellus (guinea pig) histamine phosphate-induced asthmatic model assessed as latent period of asthma at 50 mg/kg, administered 1 hr before histamine phosphate challenge with food (reference value: 115.4 +/- 126.2 /s)

Row | Compound | Activity (Cavia porcellus [1]) | Activity (Cavia porcellus [2]) | Time (Cavia porcellus [3])
1 | Nc1ccc(S(=O)(=O)N(CCCN2CCN([C@H](c3ccccc3)c3ccc(Cl)cc3)CC2)c2nccs2)cc1 | 2.44% | 395.34% | 240.3 s
2 | O=S(=O)(Nc1ncccn1)c1ccc(NCCN2CCN([C@H](c3ccccc3)c3ccc(Cl)cc3)CC2)cc1 | 217.8% | 1436.72% | 246.4 s
3 | O=C(O)CNCCCN1CCN([C@H](c2ccccc2)c2ccc(Cl)cc2)CC1 | 22.71% | 493.36% | 360 s
4 | C[C@H](NCCCN1CCN([C@H](c2ccccc2)c2ccc(Cl)cc2)CC1)C(=O)O | 113.8% | 933.8% | 307.6 s
5 | Nc1ccc(S(=O)(=O)N(CCN2CCN([C@H](c3ccccc3)c3ccc(Cl)cc3)CC2)c2nccs2)cc1 | 9.4% | 429.01% | 184.8 s
6 | O=S(=O)(Nc1ncccn1)c1ccc(NCCCN2CCN([C@H](c3ccccc3)c3ccc(Cl)cc3)CC2)cc1 | 39.93% | 576.61% | 229.2 s
7 | Nc1ccc(S(=O)(=O)NCCCN2CCN([C@H](c3ccccc3)c3ccc(Cl)cc3)CC2)cc1 | 107.15% | 901.67% | 269.4 s
8 | COc1ccc(NS(=O)(=O)c2ccc(NCCN3CCN([C@H](c4ccccc4)c4ccc(Cl)cc4)CC3)cc2)nn1 | -21.49% | 279.65% | 360 s
9 | O=S(=O)(Nc1ccc(Cl)nn1)c1ccc(NCCN2CCN([C@H](c3ccccc3)c3ccc(Cl)cc3)CC2)cc1 | 103.46% | 883.81% | 255.5 s
10 | Cc1cc(C)nc(NS(=O)(=O)c2ccc(NCCN3CCN([C@H](c4ccccc4)c4ccc(Cl)cc4)CC3)cc2)n1 | -60.28% | 92.07% | 167.4 s
11 | Nc1ccc(S(=O)(=O)NCCN2CCN([C@H](c3ccccc3)c3ccc(Cl)cc3)CC2)cc1 | 2.55% | 395.87% | 266.2 s
12 | COc1ccc(N(CCN2CCN([C@H](c3ccccc3)c3ccc(Cl)cc3)CC2)S(=O)(=O)c2ccc(N)cc2)nn1 | 62.62% | 686.34% | 288 s
13 | COc1ccc(NS(=O)(=O)c2ccc(NCCCN3CCN([C@H](c4ccccc4)c4ccc(Cl)cc4)CC3)cc2)nn1 | 43.42% | 593.5% | 295.6 s
14 | Cc1cc(C)nc(NS(=O)(=O)c2ccc(NCCCN3CCN([C@H](c4ccccc4)c4ccc(Cl)cc4)CC3)cc2)n1 | -0.15% | 382.83% | 136.8 s
15 | Nc1ccc(S(=O)(=O)N(CCCN2CCN([C@H](c3ccccc3)c3ccc(Cl)cc3)CC2)c2ccc(Cl)nn2)cc1 | 10.1% | 432.37% | 301.8 s
16 | O=S(=O)(Nc1nccs1)c1ccc(NCCN2CCN([C@H](c3ccccc3)c3ccc(Cl)cc3)CC2)cc1 | -18.8% | 292.61% | 360 s
17 | O=S(=O)(Nc1ccc(Cl)nn1)c1ccc(NCCCN2CCN([C@H](c3ccccc3)c3ccc(Cl)cc3)CC2)cc1 | 82.74% | 783.62% | 184.1 s
18 | O=S(=O)(Nc1nccs1)c1ccc(NCCCN2CCN([C@H](c3ccccc3)c3ccc(Cl)cc3)CC2)cc1 | -18.04% | 296.34% | 324.8 s
19 | Nc1ccc(S(=O)(=O)N(CCN2CCN([C@H](c3ccccc3)c3ccc(Cl)cc3)CC2)c2ccc(Cl)nn2)cc1 | -78% | 6.4% | 151.2 s
